How the values were obtained:
PC12-HS cells [1] = experiment: Evaluation method B: neurite-outgrowth promoting activity in the presence of NGF; assay type: cell-based, rat; details: for Action on PC12-HS neurite-outgrowth promotion (500 ng/ml) / Neurite-outgrowth rate (%): NGF 10 ng/ml; for Action on PC12-HS neurite-outgrowth promotion (500 ng/ml): 3 days, class of neurite-outgrowth rate
Text: (§1) As a model of the nerve cell, the NGF (nerve growth factor) highly sensitive strain of PC12 cell derived from the rat adrenal pheochromocytoma (hereinafter referred to as “PC12-HS cell”; JCRB cell bank, National Research and Development Institute of Health and Nutrition), which has been widely used as a suitable model for research on human neurodegenerative disease, was used. As the test compound, […] of trimethine cyanine dye compounds; NK-5 (Chemical formula 2), NK-36 (Chemical formula 3), NK-44 (Chemical formula 5) and dye compounds represented by Chemical formulae 12 to 18, and NK-6 (Chemical formula 7), which is a monomethine cyanine dye, were selected. In addition, two kinds of ethylene cross-linked dyes (Chemical formulae 19 and 20), 15 kinds of monomethine cyanine dyes (Chemical formulae 21 to 35), and seven kinds of trimethine cyanine dyes (Chemical formulae 36 to 42), which were expected to have a good neurocyte growth acceleration activity and/or neurite-outgrowth promoting activity in the screening disclosed in Patent literature 6, were also re-evaluated for comparison. The Chemical formulae 12 to 42 are shown below.
(§2) The cyanine dye compounds subjected to the test (purity 97% by mass or more, synthesized by Hayashibara Co., Ltd., Okayama, Japan) were individually dissolved in DMSO (product number “D8418”, commercialized by SIGMA Corporation) at a concentration of 5 mg/ml, and the solutions were then filtered through DMSO-resistant membrane (“Millex-LGS LLG025SS”, commercialized by Millipore Corporation) and stored at 25° C. in a dark condition. At the time of use, they were further diluted with Dulbecco's Medium (hereinafter, abbreviated as “D-MEM medium”, commercialized by Nissui Pharmaceutical Co., Ltd.) supplemented by 10% by volume of fetal bovine serum (FBS), and subjected to the test.
As in the case of evaluation of neurocyte growth accelerating activity (Evaluation method A), 50 μl/well of each test compound solution, prepared by diluting with the culture medium to give a final concentration of 500 ng/ml, and the culture medium containing 20 ng/ml of mouse NGF (mouse derived, final concentration 10 ng/ml, commercialized by Chemicon International, Inc., CA, USA) (50 μl/well) were added to the precultured PC12-HS cells in each well, and then cultured for three days. Culture medium was removed on day 3 of culture, and cells were fixed by adding 100 μl/well of 10% by volume of glutaraldehyde and standing for 20 minutes at room temperature. As a negative control, PC12-HS cells, cultured for three days with culture medium, were fixed with glutaraldehyde similarly as above. Fixed cells were observed under a microscope to assess the neurite-outgrowth. The neurite-outgrowth rate (%) was determined by observing the cells using a microscope by adjusting the magnitude to give about 100 cells in one visual field, counting the number of cells having neurites twice or more in length of the cell body (major axis), dividing by the total number of cells in the same visual field, and multiplying by 100. Measurements were carried out at three points for each test compound. […] In this experiment, the neurite-outgrowth rate was 5% or less when NGF was added (final concentration 10 ng/ml) without the addition of the test compound.
The method was based on Experiment 1-1, except the concentrations of the test compounds were set to three doses of 40 nM, 200 nM and 1,000 nM for evaluation method A (neurocyte growth accelerating effect), and two doses of 200 nM and 1,000 nM for evaluation method B (neurite outgrowth promoting effect). Measurements were performed in triplicate for each concentration of each test compound in both evaluation methods A and B. The result of the evaluation method A was expressed as a cell proliferation rate (%) by determined a relative percentage (%) when the value of the negative control to which the test compound was not added, was regarded as 100%. […]

PC12-HS cells [2] = experiment: Evaluation method A: neurocyte growth acceleration activity (Alamar blue); assay type: cell-based, rat; details: for Action on PC12-HS growth acceleration (50 ng/ml): 3 days culture, class of cell proliferation rate vs negative control = 100%; for Cell proliferation rate (%): negative control = 100%; for neurocyte growth acceleration activity (in words): 40, 200 and 1,000 nM, comment on Table 2
Text: as §1, §2
PC12-HS cells were subjected to tests after frozen stock cultured cells were thawed and cultured with a D-MEM medium supplemented with 10% by volume of FBS (Hereinafter, when the term “culture” is simply used, it means that the cells are statically cultured in an incubator controlled at 37° C. under 5% by volume of CO2 conditions). Cells used in the test were collected using 0.25% by weight of trypsin solution, then diluted with a D-MEM medium supplemented with 10% by volume of FBS (hereinafter referred to as “culture medium”), seeded into collagen-coated 96-well plates (commercialized by Falcon, Tokyo, Japan, “Microtest Plate, Cell Culture, Flat Bottom”) to obtain 5×10^3 cells/100 μl/well, and cultured for 24 hours (hereinafter referred to as “pre-culture”). Then, the above test samples were diluted with a culture medium, and 100 μl of diluted solution of the test compounds were added to each well so that the final concentration of the test compounds in the wells became 50 ng/ml, and the cells were cultured for another three days. On day 3, the cultures supernatant was removed from each well, 200 μl of culture medium containing 10% by volume of Alamar blue reagents (commercialized by Trek Diagnostic Systems Inc., Ohio, USA) were added to each well, and the cells were cultured for 6 hours. After culturing for 6 hours, the cells were measured for fluorescent intensity at a wavelength of 544-590 nm by “FlexStation 3”, a product name of a fluorescent plate reader (commercialized by Japan Molecular Devices Corporation, Tokyo, Japan). […] Measurements were performed for each test compound in triplicate, and the mean values were shown.
The method was based on Experiment 1-1, except the concentrations of the test compounds were set to three doses of 40 nM, 200 nM and 1,000 nM for evaluation method A (neurocyte growth accelerating effect), and two doses of 200 nM and 1,000 nM for evaluation method B (neurite outgrowth promoting effect). […]

SMILES	Action on PC12-HS neurite-outgrowth promotion (500 ng/ml) (PC12-HS cells [1])	Action on PC12-HS growth acceleration (50 ng/ml) (PC12-HS cells [2])	other results
CCN1C(C)=CSC1=CC=Cc1scc(C)[n+]1CC.[I-] [NK-67]	◯ (When the mean neurite-outgrowth rate was 25 to 44%, it was judged to be equivalent to the positive control NK-4 (“circle”))		
CCCCCCCN1C(C)=CSC1=Cc1scc(C)[n+]1CCCCCCC.[I-] [NK-266]	◯ (When the mean neurite-outgrowth rate was 25 to 44%, it was judged to be equivalent to the positive control NK-4 (“circle”))		
CCN1C(=Cc2cc[n+](CC)c3ccccc23)C=Cc2ccccc21.[I-] [NK-276]	◯ (When the mean neurite-outgrowth rate was 25 to 44%, it was judged to be equivalent to the positive control NK-4 (“circle”))		
CCN1C(=CC=Cc2sc3ccc4ccccc4c3[n+]2CC)Sc2ccc3ccccc3c21.[I-] [NK-382]	◯ (When the mean neurite-outgrowth rate was 25 to 44%, it was judged to be equivalent to the positive control NK-4 (“circle”))		
CCCCN1C(C)=CSC1=Cc1scc(C)[n+]1CCCC.[I-] [NK-399]	◯ (When the mean neurite-outgrowth rate was 25 to 44%, it was judged to be equivalent to the positive control NK-4 (“circle”))		
CN(C)c1ccc(C=Cc2oc3ccccc3[n+]2C)cc1.[I-] [NK-528]	◯ (When the mean neurite-outgrowth rate was 25 to 44%, it was judged to be equivalent to the positive control NK-4 (“circle”))	◯ (the relative value of 130% to 169% was judged to be equivalent to NK-4 (“circle”))	
CC[n+]1ccccc1C=Cc1ccc(N(C)C)cc1.[I-] [NK-557]	◯ (When the mean neurite-outgrowth rate was 25 to 44%, it was judged to be equivalent to the positive control NK-4 (“circle”))		
Cc1ccc2c(c1)SC(=Cc1sc3cc(C)ccc3[n+]1C)N2C.[I-] [NK-594]	◯ (When the mean neurite-outgrowth rate was 25 to 44%, it was judged to be equivalent to the positive control NK-4 (“circle”))		
CCN1C(=CC=Cc2cc[n+](CC)c3ccccc23)Oc2ccccc21.[I-] [NK-741]	◯ (When the mean neurite-outgrowth rate was 25 to 44%, it was judged to be equivalent to the positive control NK-4 (“circle”))		
CCN1C(=Cc2oc3ccccc3[n+]2CC)Oc2ccccc21.[I-] [NK-863]	◯ (When the mean neurite-outgrowth rate was 25 to 44%, it was judged to be equivalent to the positive control NK-4 (“circle”))		
CCN1C(=Cc2ccc3ccccc3[n+]2CC)C=Cc2ccccc21.[Br-] [NK-1046]	◯ (When the mean neurite-outgrowth rate was 25 to 44%, it was judged to be equivalent to the positive control NK-4 (“circle”))		
CCN1C(=Cc2oc3ccccc3[n+]2CC)Sc2ccccc21.[I-] [NK-1049]	◯ (When the mean neurite-outgrowth rate was 25 to 44%, it was judged to be equivalent to the positive control NK-4 (“circle”))		
O=C1/C(=C\c2ccccc2)SC(=S)N1c1ccccc1 [NK-1075]		◯ (the relative value of 130% to 169% was judged to be equivalent to NK-4 (“circle”))	
CC1=NN(c2ccccc2)C(=O)/C1=C\c1ccccc1 [NK-1076]		◯ (the relative value of 130% to 169% was judged to be equivalent to NK-4 (“circle”))	
CC1=NN(c2ccccc2)C(=O)/C1=C\c1ccc(N(C)C)cc1 [NK-1107]		◯ (the relative value of 130% to 169% was judged to be equivalent to NK-4 (“circle”))	
CC(=Cc1oc2ccccc2[n+]1C)C=C1Oc2ccccc2N1C.[I-] [NK-1300]	◯ (When the mean neurite-outgrowth rate was 25 to 44%, it was judged to be equivalent to the positive control NK-4 (“circle”))		
CCN1C(=O)/C(=C\C=C\c2sc(=S)n(CC)c2O)SC1=S [NK-1451]		◯ (the relative value of 130% to 169% was judged to be equivalent to NK-4 (“circle”))	
CCN1C(=Cc2sc3ccccc3[n+]2CC)Sc2ccccc21.[Br-] [NK-1560]	◯ (When the mean neurite-outgrowth rate was 25 to 44%, it was judged to be equivalent to the positive control NK-4 (“circle”))		
CN1C(=CC2=[N+](C)c3ccccc3C2(C)C)Sc2ccccc21.[I-] [NK-1570]	◯ (When the mean neurite-outgrowth rate was 25 to 44%, it was judged to be equivalent to the positive control NK-4 (“circle”))		
CN1C(=CC2=[N+](C)c3ccccc3C2(C)C)Oc2ccccc21.[I-] [NK-1684]	◯ (When the mean neurite-outgrowth rate was 25 to 44%, it was judged to be equivalent to the positive control NK-4 (“circle”))		
O=C1/C(=C\C=C\c2sc3ccccc3c2O)Sc2ccccc21 [NK-1741]		◯ (the relative value of 130% to 169% was judged to be equivalent to NK-4 (“circle”))	
CC1(C)C(=CC=CC2=[N+](CCO)c3ccccc3C2(C)C)N(CCO)c2ccccc21.[Br-] [NK-1883]			Neurite-outgrowth rate (%) (PC12-HS cells [1]; 1.000 nM): 13.3%; Neurite-outgrowth rate (%) (PC12-HS cells [1]; 200 nM): 13.3%; Cell proliferation rate (%) (PC12-HS cells [2]; 1.000 nM): 87.5%; Cell proliferation rate (%) (PC12-HS cells [2]; 40 nM): 104.8%; Cell proliferation rate (%) (PC12-HS cells [2]; 200 nM): 105.1%; neurocyte growth acceleration activity (in words) (PC12-HS cells [2]): almost no growth acceleration activity
O=S(=O)([O-])CCCN1CCSC1=CC=CC1=[N+](CCCS(=O)(=O)[O-])CCS1.[Na+] [NK-3134]		◯ (the relative value of 130% to 169% was judged to be equivalent to NK-4 (“circle”))	Neurite-outgrowth rate (%) (PC12-HS cells [1]; 1.000 nM): 18.2%; Neurite-outgrowth rate (%) (PC12-HS cells [1]; 200 nM): 29.4%; neurite-outgrowth promoting activity (in words) (PC12-HS cells [1]; 200 and 1,000 nM, comment on Table 2): almost equivalent neurite-outgrowth promoting rate to NK-4; Cell proliferation rate (%) (PC12-HS cells [2]; 1.000 nM): 122.8%; Cell proliferation rate (%) (PC12-HS cells [2]; 40 nM): 103.9%; Cell proliferation rate (%) (PC12-HS cells [2]; 200 nM): 119.6%; neurocyte growth acceleration activity (in words) (PC12-HS cells [2]): slightly weaker activity than NK-6 and NK-36

Reference: patent US20220031690A1, “ANTI-NEURODEGENERATIVE DISEASE AGENT” (Hayashibara Co., Ltd., priority 2018, published 2022)
